In patent US12295955B2, “TTP phosphorylation for the identification of personalized medicines” (KING FAISAL SPECIALIST HOSPITAL & RESEARCH CENTRE, priority 2019, dated 2025):

Legend:
[1] = tested on: phosphorylated TTP; assay: Phosphorylated TTP level in ERBB2 overexpressing SKBR3 cells treated with ERBB2 inhibitor; assay type: cell-based; details: SKBR3 breast cancer cell line, FIG. 6B
[2] = tested on: phosphorylated TTP/ZFP36; assay: Western blotting of TTP/ZFP36 phosphorylation in cells treated with kinase inhibitor volasertib; assay type: cell-based
Experimental: The cells were lysed in a mixture of 0.5% NP40 buffer, protease inhibitor and phosphatase inhibitor. The calf intestinal alkaline phosphatase (CIP, Promega, Madison, WI, USA) was used to verify the phosphorylation status of TTP/ZFP36, 20 units were added to the cell lysate (per 250 ul). The cell lysates were loaded and subjected to electrophoresis on 4-12% NuPAGE Bis-Tris gel (Invitrogen, Foster City, CA, USA). Then, the proteins were transferred from the gel to nitrocellulose membranes (Hybond ECL; Amersham Biosciences, Piscataway, NJ) in the presence of NuGAGE 20× transfer buffer (Invitrogen, Foster City, CA, USA). After blocking, membranes were incubated with primary antibodies diluted in 5% bovine serum albumin (BSA) (Sigma-Aldrich, St Louis, MO) at 4° C. overnight. For TTP/ZFP36, a custom-made affinity purified TTP polyclonal antibody and against C-terminal end of TTP and was used previously. This antibody is specific to TTP/ZFP36, but not the ortholog: ZFP36L1 when using 0.5% NP40 buffer instead of Laemmli buffer. Other antibodies are: anti-PLK1 (dilution 1:1000, Cell signaling, Massachusetts, USA), anti-GAPDH (dilution 1:500, Abcam, MA, USA), anti-HA, dilution 1:5000, Roche, Upper Bavaria, Germany). Thereafter, the membranes were incubated with corresponding secondary antibodies (diluted in 5% BSA, 1:2000 dilution) (Santa Cruz Biotech, Santa Cruz, CA) for 1-3 hrs. Protein bands were detected using ECL Western blotting detection reagents (Amersham Biosciences, Amersham, UK) in Molecular Imager ChemiDoc machine (BioRad, Hercules, CA, USA).
An exemplary kinase inhibitor, namely volasertib, was tested for the effects on the level of phosphorylation of TTP. […] The maximum dosage tested was 300 nM, and the lowest tested dose was 10 nM and was still effective (FIG. 2A). […] There was no change in the mobility of ZFP36 as observed with CIP treatment, indicating a partial, rather than complete de-phosphorylation event (as with CIP).

[3] = tested on: phosphorylated TTP/ZFP36; assay: Western blotting of phosphorylated TTP/ZFP36 in excised xenograft tumor tissues; design: species or system nude mice; details: 10 mg/kg in vivo treatment, Western blot, FIG. 4B
Experimental: (§1) FIGS. 4A-4B show kinase inhibition in mice and reduction in TTP phosphorylation. • 4A) PLK1 inhibition and tumor size in mice; MDA-MB-231 xenografts were injected into the mammary fat pad of female nude mice; when tumors become palpable, mice were treated with either volasertib (10 mg/kg) or vehicle twice weekly. The tumor size was calculated as described in Methods. Data are Mean±SEM from a nine-mouse experiment as indicated. Two-way ANOVA was performed for overall effect with Sidak's multiple comparison test (*p<0.05, **** p<0.0001). 4B) The effect of volasertib on TTP/ZFP36 phosphorylation; WB of tumor tissues from each mouse as probed with anti-TTP/ZFP36 or GAPDH as the loading control.
The cells were lysed in a mixture of 0.5% NP40 buffer, protease inhibitor and phosphatase inhibitor. […] Protein bands were detected using ECL Western blotting detection reagents (Amersham Biosciences, Amersham, UK) in Molecular Imager ChemiDoc machine (BioRad, Hercules, CA, USA).
(§2) Nude mice were purchased from Jackson Laboratories (Bar Harbor, Maine, USA). […] Tumor growth was measured by caliper, and the volume was calculated by the formula (π/6×L×M2), where L and M refer to the large and small diameters of each tumor, respectively. Mice weight and tumor size were recorded weekly. […]

[4] = tested on: MDA-MB-231 xenografts; assay: MDA-MB-231 xenograft tumor growth in nude mice; assay type: in vivo
Experimental: as §1
as §2, with “USA). The mice were housed at the animal facility at King Faisal Specialist Hospital and Research Center (KFSHRC) and maintained in accordance with protocols approved by the institution Animal Care and Use Committee.” for “USA).”

[5] = tested on: uPA; assay: Western blotting of uPA protein (TTP target) after volasertib; assay type: cell-based; details: volasertib 330 nM time course, FIG. 2C
Experimental: The cells were lysed in a mixture of 0.5% NP40 buffer, protease inhibitor and phosphatase inhibitor. The calf intestinal alkaline phosphatase (CIP, Promega, Madison, WI, USA) was used to verify the phosphorylation status of TTP/ZFP36, 20 units were added to the cell lysate (per 250 ul). The cell lysates were loaded and subjected to electrophoresis on 4-12% NuPAGE Bis-Tris gel (Invitrogen, Foster City, CA, USA). Then, the proteins were transferred from the gel to nitrocellulose membranes (Hybond ECL; Amersham Biosciences, Piscataway, NJ) in the presence of NuGAGE 20× transfer buffer (Invitrogen, Foster City, CA, USA). After blocking, membranes were incubated with primary antibodies diluted in 5% bovine serum albumin (BSA) (Sigma-Aldrich, St Louis, MO) at 4° C. overnight. For TTP/ZFP36, a custom-made affinity purified TTP polyclonal antibody and against C-terminal end of TTP and was used previously. This antibody is specific to TTP/ZFP36, but not the ortholog: ZFP36L1 when using 0.5% NP40 buffer instead of Laemmli buffer. Other antibodies are: anti-PLK1 (dilution 1:1000, Cell signaling, Massachusetts, USA), anti-GAPDH (dilution 1:500, Abcam, MA, USA), anti-HA, dilution 1:5000, Roche, Upper Bavaria, Germany). […] Protein bands were detected using ECL Western blotting detection reagents (Amersham Biosciences, Amersham, UK) in Molecular Imager ChemiDoc machine (BioRad, Hercules, CA, USA). […]

[6] = dose response, 10 nM to 300 nM, Western blot, FIG. 2A
[7] = time course, volasertib 330 nM, FIG. 2B

Row | SMILES | levels of phosphorylated TTP [1] | lowest tested dose still effective on TTP / phosphorylated TTP abundance ([2]; FIG. 2A) | change in the mobility of ZFP36 (partial rather than complete de-phosphorylation) ([2]; compared with CIP treatment) | abundance of phosphorylated TTP [2, 6] | abundance of total TTP [2, 6] | time after treatment at which effect on phosphorylated TTP is first observed [2, 7] | time after treatment of maximal effect on phosphorylated TTP [2, 7] | phosphorylated TTP/ZFP36 levels in excised tumor tissues versus control [3] | tumor growth versus control group ([4]; 10 mg/kg intraperitoneal twice a week, female nude mice, FIG. 4A upper panel) | difference in tumor volume versus vehicle ([4]; 10 mg/kg twice a week, after 4 weeks of treatment, FIG. 4A lower panel) | abundance of the uPA protein [5]
1 | CS(=O)(=O)CCNCc1ccc(-c2ccc3ncnc(Nc4ccc(OCc5cccc(F)c5)c(Cl)c4)c3c2)o1 [lapatinib] | reduce the levels of phosphorylated TTP |  |  |  |  |  |  |  |  |  | 
2 | CC[C@@H]1C(=O)N(C)c2cnc(Nc3ccc(C(=O)N[C@H]4CC[C@H](N5CCN(CC6CC6)CC5)CC4)cc3OC)nc2N1C(C)C [volasertib] |  | 10 nM | no change | reduced in a dose-dependent manner | reduced in a dose-dependent manner | 2 h | 8 h | markedly reduced | slower growth rate and began to regress by the end of the experiment | statistically significant difference | reduced
